Results: PubChem BioAssay (NCI)
Several values for one entry are separate records, joined by “and”; a condition that tells them apart may be missing. Identical values can stand only once.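 Growth conditions: 96-well plates. Treatment: test compound, 48 hours, 5 concentrations. Analysis: linear interpolation between bracketing concentrations; unreached endpoints set to highest concentration. At the GI50, growth is halved. Definition used: TGI = concentration required for complete inhibition of growth.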

How the values were obtained:
Test in all cases: NCI-60 cell line screen, 48 h
[1] = system: COLO 205 colon
[2] = system: HCC-2998 colon
[3] = system: HCT-15 colon
[4] = system: MALME-3M melanoma
[5] = system: NCI/ADR-RES ovarian
[6] = system: OVCAR-8 ovarian
[7] = system: RPMI-8226 leukemia
[8] = system: SK-MEL-2 melanoma
[9] = system: SW-620 colon
[10] = system: U251 CNS

Structure (SMILES)	GI50 [1] [µM]	TGI [1]	GI50 [2] [µM]	TGI [2]	GI50 [3]	TGI [3] [µM]	GI50 [4] [µM]	TGI [4]	GI50 [5] [µM]	TGI [5]	GI50 [6]	TGI [6]	GI50 [7] [µM]	TGI [7] [µM]	GI50 [8] [µM]	TGI [8]	GI50 [9] [µM]	TGI [9]	GI50 [10] [µM]	TGI [10] [µM]
COc1cc2nc(N3CCCC3)nc(Nc3ccccc3)c2cc1OC	1.3	3.96 µM	1.9	3.65 µM	0.68 µM	2.04	1.88	3.37 µM	1.74	4.07 µM	1.54 µM	5.06 µM	1.07	4.3	2.09	4.16 µM	1.52	3.17 µM	1.02	2.45
NC(CSc1nc2ccccn2c1[N+](=O)[O-])C(=O)O (configuration not stated)	–	> 100 µM	–	> 100 µM	–	> 100	–	> 100 µM	–	> 100 µM	–	> 100 µM	–	> 100	–	> 100 µM	–	> 100 µM	–	> 100
Cc1ccc(N=Nc2c(N)nn(-c3ccccc3)c2N)cc1	1.21	> 26.9 µM	0.912	> 100 µM	0.612 µM	> 100	–	> 100 µM	0.412	> 20.6 µM	4.27 µM	> 100 µM	1.61	42	0.464	–	0.493	> 100 µM	0.762	> 100
O=C(NC(=S)NNC(=S)NNc1ccccc1)c1ccccc1	9.81	> 100 µM	8.53	> 100 µM	5.21 µM	> 100	24.2	> 100 µM	5.26	> 100 µM	4.68 µM	> 100 µM	3.55	> 100	4.11	> 100 µM	4.09	> 100 µM	8.36	> 100
CCCCCCCCCCCC[n+]1ccccc1	0.868	2.66 µM	1.37	5.29 µM	2.61 µM	16.4	1.18	3.41 µM	14.9	50.7 µM	1.03 µM	5.28 µM	0.29	1.67	1.44	3.73 µM	2	10.5 µM	0.997	2.44
C[C@H]1[C@H](C)CC[C@]2(C(=O)O)CC[C@]3(C)C(=CC[C@@H]4[C@@]5(C)CC[C@H](OC(=O)/C=C/c6ccc(O)cc6)C(C)(C)[C@@H]5CC[C@]43C)[C@H]12	4.12	> 50.3 µM	7.37	21.9 µM	10.9 µM	33	1.9	20 µM	10.9	26.1 µM	2.8 µM	18.3 µM	5.49	48.5	13.5	50.1 µM	9.2	32.4 µM	6.54	17.2
CC1(C)CC(OCCCC[P+](c2ccccc2)(c2ccccc2)c2ccccc2)CC(C)(C)N1O	0.202	0.402 µM	0.287	3.19 µM	2.78 µM	9.12	0.317	1.07 µM	5.56	21.5 µM	0.333 µM	2.61 µM	0.019	0.133	0.272	0.641 µM	0.337	4.86 µM	0.247	1.54
Nc1ncnc2c(C3OC(CO)C(O)C3O)[nH]nc12 (configuration not stated)	2.99	15.7 µM and 11.7 µM	0.0575	3.11 µM and 1.31 µM	0.0383 µM and 0.0444 µM	0.156	0.519	5.33 µM and 2.75 µM	0.0484	2.85 µM and 1.17 µM	0.0375 µM and 0.0527 µM	0.624 µM and 0.713 µM	–	3.96	0.0507	0.739 µM and 0.5 µM	0.0592	3.31 µM and 9.17 µM	1.39	25.4
COC(=O)c1ccc2c(c1)C(=O)c1c-2n(CCCN)c(=O)c2cc([N+](=O)[O-])ccc12	0.0737	1.69 µM	< 0.01	0.058 µM	0.0625 µM	0.56	0.038	1.36 µM	< 0.029	0.682 µM	< 0.0344 µM	0.864 µM	< 0.01	0.117	–	0.519 µM	< 0.01	1.27 µM	< 0.0127	0.368
COc1cccc(-n2ncc3c(N/N=C/c4ccc(S(C)(=O)=O)cc4)ncnc32)c1	7.64	> 25 µM	12.4	> 25 µM	> 25 µM	> 25	4.21	> 25 µM	9.1	> 25 µM	6.11 µM	15.6 µM	> 22.9	> 25	9.94	> 25 µM	> 25	> 25 µM	4.99	17.6
CC(=O)OC1CCC2(C)C(CCC3C4CC=C(C(C)=O)C4(C)OC(=O)CC32)C1 (configuration not stated)	1.64	3.02 µM	2.21	4.06 µM	1.13 µM	2.61	1.61	3.67 µM	3.45	13 µM	2.13 µM	7.49 µM	1.79	4.86	2.91	8.42 µM	1.52	3.43 µM	10.1	21.8
CCN(CC)CCCOc1cc(O)c2c(=O)cc(-c3ccccc3)oc2c1	4.21	15.5 µM	10.1	24.4 µM	3.94 µM	14.6	9.81	25 µM	13.3	27.1 µM	–	28.2 µM	9.71	28.4	10.1	27 µM	6.27	19.3 µM	10.6	22.4
O=C1OC(C2=CC(=O)c3ccccc3C2=O)C(Cl)=C1Cl (configuration not stated)	–	> 100 µM	–	61.3 µM	–	41	–	57.9 µM	–	> 100 µM	–	29.8 µM	–	47.3	–	35.4 µM	–	94.1 µM	–	86
S=C=NCc1ccccc1	–	4.78 µM	–	23.1 µM	–	11.1	–	19.6 µM	–	> 32 µM	–	9.31 µM	–	> 100	–	> 59 µM	–	> 37.3 µM	–	12.2
CC1(C)N=C(N)N=C(N)N1c1cccc(CCCCc2ccccc2)c1	0.448	2.36 µM	0.195	3.82 µM	1.73 µM	21.7	2.31	14.8 µM	> 73.4	> 100 µM	0.262 µM	16 µM	0.289	2.72	1.82	11.4 µM	0.0532	16.4 µM	0.0541	13.5
O=C1c2ccccc2-c2n[nH]c3cccc1c23	23.9	> 100 µM	19.3	54.6 µM and > 100 µM	6.66 µM	> 100	24.1	58.9 µM and > 86.8 µM	30.5	59.2 µM and > 100 µM	–	> 100 µM	14.1	> 100	22.5	> 100 µM	–	> 100 µM	16.6	> 100
C=CC(=O)N1CCC([C@@H]2CCNc3c(C(N)=O)c(-c4ccc(Oc5ccccc5)cc4)nn32)CC1	22.1	> 74.3 µM	14.2	29.6 µM	15.3 µM	46.5	11.6	26.8 µM	17.8	> 96.6 µM	13.8 µM	74.2 µM	14.5	42.8	18.2	40 µM	19.2	46.1 µM	17.6	> 77.1
COc1ccc(/C=C/C(=O)c2ccc3cc(OC)c(OC)cc3c2)cc1OC	4.1	13.2 µM	3.92	13.9 µM	2.69 µM	40.8	13.6	30.2 µM	2.71	8.85 µM	2.56 µM	7.89 µM	1.9	5.07	11.5	31.6 µM	3.32	14.2 µM	3.33	15.2
Nc1nc(N)c2c(ccc3nccc32)[nH]1	8.03	50.9 µM	9.79	> 91 µM	2.35 µM	> 100	5.28	33.6 µM	6.61	> 100 µM	4.62 µM	> 100 µM	3.73	21.7	10.1	37.1 µM	1.03	> 77.3 µM	3.22	> 69.5
O=c1oc2ccc(Cl)cc2c(=O)n1-c1cc(C(F)(F)F)cc(C(F)(F)F)c1	1.78	3.72 µM	0.346	3.77 µM	0.306 µM	1.78	0.222	0.696 µM	0.264	1.37 µM	0.323 µM	–	0.188	0.712	0.236	0.846 µM	0.328	5.95 µM	0.254	11.6
OCCNc1ncnc2c1ncn2C1OC(CO)C(O)C1O (configuration not stated)	–	> 100 µM	–	> 100 µM	–	> 100	–	> 100 µM	–	> 100 µM	–	> 100 µM	–	> 100	–	> 100 µM	–	> 100 µM	–	> 100
CC[C@H](C)[C@H](NC(=O)Nc1ccccc1)C(=O)N(C)[C@H](C[C@@H](OC(C)=O)c1nc(C(=O)N[C@@H](Cc2ccccc2)C[C@H](C)C(=O)OC)cs1)C(C)C	3.17	18.2 µM	3.48	> 100 µM	3.58 µM	> 100	98.2	> 100 µM	54.2	> 100 µM	4.69 µM	> 100 µM	2.03	> 100	3.17	> 100 µM	3.58	> 100 µM	3.16	> 100
COc1cc(Cn2ccc3c2-c2oncc2CC3)cc(OC)c1	3.7	17.3 µM	7.13	90.1 µM	3.03 µM	> 100	4.25	37.9 µM	1.95	7.24 µM	4.81 µM	46.7 µM	4.98	50.3	8.29	> 100 µM	2.18	> 100 µM	4.43	69.3
